Consider two compounds from PMC6406907, “A H2AX–CARP-1 Interaction Regulates Apoptosis Signaling Following DNA Damage” (Cancers, 2019).

For test [1], the system named is CARP-1, phospho-JNK1/2, phospho-H2AX, PARP. The test is described as follows: Western blot of CARP-1, phospho-JNK1/2, γH2AX, cleaved PARP in MDA-MB-468. As to conditions: for CARP-1 and γH2AX increase after knock-down of CARP-1: MDA-MB-468, CARP-1 knock-down; for JNK1/2 and H2AX activation: cells overexpressing myc-His-tagged CARP-1, WB. Format: cell-based, human.
In test [2] the test system is HeLa cells. The experiment in a line: Comet assay (DNA damage), HeLa. It counts as cell-based, human. The arrangement: Olive Tail Moment (Mean) / Tail Moment (Mean): unit not given here. Conditions: for percentage of tail DNA and tail moment: 10 μM, 1, 3, 6, 12 h; for Olive Tail Moment (Mean) / Tail Moment (Mean) / %Tail DNA (Mean): 10 µM; for Olive Tail Moment (Mean): control 5.539; for Tail Moment (Mean): control 9.081; for %Tail DNA (Mean): control 28.414, alkaline electrophoresis, Vista Green. The protocol: The DNA damage assay was performed using a comet assay kit 96-well plate (Cell Bio Labs, CA, USA) as per the manufacturer’s instructions. Briefly, the cell suspension was mixed with the low-melting agarose at 1:20 ratio and added to the pre-coated 96 well plate. The cells were then subjected to lysis for 1 h, followed by alkaline electrophoresis. The plate was then washed in 70% ethanol and Vista Green DNA dye was added. The comets were visualized in Zeiss LSM780 Confocal microscope. The images were processed using Zeiss ZEN lite software and the comet parameters were measured using Open comet software.
Adriamycin is well known to induce DNA damage. Given the critical role of CARP-1 in apoptotic signaling by Adriamycin and CFM compounds, and the fact that stress-activated protein kinases (SAPKs) p38 and JNKs are activated in apoptosis signaling by CFM-4.16 [6, 12, 13, 14, 15, 16, 17, 18], we next determined whether CFM-4.16 also provoked DNA damage. We treated MDA-MB-468 and HeLa cells with a 10 μM dose of Adriamycin or CFM-4.16 for 1, 3, 6, and 12 h, followed by assessment of damaged DNA by the comet assay as described in Section 2. The presence of comet-like tails that contain the fragmented cellular DNA is a well-known marker/indicator of apoptosis. We measured the comet parameters such as percentage tail DNA and mean tail moment. […] Of note is the fact that Adriamycin and related anthracyclines intercalate between DNA bases and trap topoisomerase II (TopoII) in the double-strand cleavage form, thus introducing double-strand breaks (DSBs) due to TopoII poisoning. It remains to be clarified whether CFM-4.16 also targets cellular DNA and/or the associated DNA repair complex protein(s) to introduce DNA strand breaks, or activates caspase-activated DNAses to breakdown cellular genomic DNA.
Figure 2 Adriamycin and CFM-4.16 induce DNA damage. Cells were treated with the noted dose of respective compound for indicated time periods. Mean values for percentage tail DNA content (A,C) and Olive tail moment (B,D) for respective cells from control and treatment periods for each compound were measured using software recommended by the manufacturer of the kit for measurement of DNA damage (Cell Bio Labs, CA, USA). The columns in each chart indicate average values for respective treatment condition; bars, SE; * p ≤ 0.05.
Table S1. Adriamycin and CFM-4.16 stimulate DNA Damage in a time-dependent manner. MDA-MB-468 and HeLa cells were with noted dose of respective compound for indicated time periods.
Mean values for % tail DNA, Tail moment, and Olive tail moment for respective cells from control and treatment periods for each compound were measured using software recommended by the manufacturer of the kit for measurement of DNA damage (Cell Bio Labs, San Diego, CA, USA). The p values for each of the parameter are indicated below the mean values in each column for the treatment time period with each compound for both the cell lines.
Adriamycin (10 µM) CFM-4.16 (10 µM)

With `COc1cccc2c1C(=O)c1c(O)c3c(c(O)c1C2=O)C[C@@](O)(C(=O)CO)C[C@@H]3O[C@H]1C[C@H](N)[C@H](O)[C@H](C)O1` [Adriamycin, doxorubicin, reference compound], in test [1], the “CARP-1 and γH2AX increase after knock-down of CARP-1” value is “abrogated CARP-1 and γH2AX increase”; the “JNK1/2 and H2AX activation” value was “time-dependent stimulation of JNK1/2 and H2AX activation”. In addition, the “levels of CARP-1” value in test [1] (MDA-MB-468, single agent (JNK-IN-8 at 5 μM), WB) is given as “elevated levels of CARP-1”. In test [2], the “percentage of tail DNA and tail moment” value is reported as “significantly increased”. In test [2] (1 h), the “Olive Tail Moment (Mean)” value stood at 18.8, the “Tail Moment (Mean)” value turned out to be 32.09 and the “%Tail DNA (Mean)” value came to 40.8%. In addition, in test [2] (3 h), the “Olive Tail Moment (Mean)” value is 39.9, the “Tail Moment (Mean)” value was determined as 61.8 and the “%Tail DNA (Mean)” value was found to be 76.74%. Besides, in test [2] (6 h), the “Olive Tail Moment (Mean)” value worked out at 47.9, the “Tail Moment (Mean)” value amounted to 79.11 and the “%Tail DNA (Mean)” value came to 84.98%. Further, in test [2] (12 h), the “Olive Tail Moment (Mean)” value turned out to be 60.49, the “Tail Moment (Mean)” value amounted to 102.2 and the “%Tail DNA (Mean)” value is recorded as 93.4%.

In the case of `O=C1N(Cc2ccccc2Cl)c2ccccc2C12NN=C(c1cccc(Cl)c1)S2` (stereo not shown) [CFM-4.16], in test [1], the “CARP-1 and γH2AX increase after knock-down of CARP-1” value is “abrogated CARP-1 and γH2AX increase”; the “JNK1/2 and H2AX activation” value was “time-dependent stimulation of JNK1/2 and H2AX activation”. The “percentage of tail DNA and tail moment” value in test [2] is given as “significantly increased”. Besides, in test [2] (1 h), the “Olive Tail Moment (Mean)” value worked out at 10.9, the “Tail Moment (Mean)” value came to 16.526 and the “%Tail DNA (Mean)” value is listed as 27.297%. In test [2] (3 h), the “Olive Tail Moment (Mean)” value is 15.4, the “Tail Moment (Mean)” value is 26.7 and the “%Tail DNA (Mean)” value is given as 34.45%. Besides, in test [2] (6 h), the “Olive Tail Moment (Mean)” value was 32.73, the “Tail Moment (Mean)” value is recorded as 47.54 and the “%Tail DNA (Mean)” value was 53.24%. Further, in test [2] (12 h), the “Olive Tail Moment (Mean)” value was 41.02, the “Tail Moment (Mean)” value is on record as 76.03 and the “%Tail DNA (Mean)” value is listed as 69.61%.
